Patent US6479435B1, “Diaryl ethers and processes for their preparation and herbicidal and desiccant compositions containing them” (ISK Americas Incorporated, priority 1997, dated 2002)

Experiments:
Assay type in all cases: in vivo
[1] = system: Johnsongrass (Sorghum halepense, SORHA); assay: Pre-emerge greenhouse herbicide test, phytotoxicity rating; details: 14 days after application, rating scale 0-100
Summary of the method: (§1)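 Seeds sown in sandy loam mix one day before track-sprayer application of compounds in acetone at 125–1000 g ai/ha (187 l/ha), then surface-watered to incorporate and bottom-watered. Visual rating 14 days after application on a 0–100 scale (0 = no damage, 100 = all plants dead).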

[2] = system: barnyardgrass (Echinochloa crusgalli, ECHCG); assay: as above; details: 14 days after application, rating scale 0-100
Summary of the method: as §1

[3] = system: common ragweed (Ambrosia artemisiifolia L., AMBEL); assay: as above; details: 14 days after application, rating scale 0-100
Summary of the method: as §1

[4] = system: green foxtail (Setaria viridis, SETVI); assay: as above; details: 14 days after application, rating scale 0-100
Summary of the method: as §1

[5] = system: ivyleaf morningglory (Ipomoea hederacea, IPOHE); assay: as above; details: 14 days after application, rating scale 0-100
Summary of the method: as §1

[6] = system: lambsquarters (Chenopodium album, CHEAL); assay: as above; details: 14 days after application, rating scale 0-100
Summary of the method: as §1

[7] = system: large crabgrass (Digitaria sanguinalis, DIGSA); assay: as above; details: 14 days after application, rating scale 0-100
Summary of the method: as §1

[8] = system: redroot pigweed (Amaranthus retroflexus, AMARE); assay: as above; details: 14 days after application, rating scale 0-100
Summary of the method: as §1

[9] = system: sicklepod (Cassia obtusifolia, CASOB); assay: as above; details: 14 days after application, rating scale 0-100
Summary of the method: as §1

[10] = system: velvetleaf (Abutilon theophrasti, ABUTH); assay: as above; details: 14 days after application, rating scale 0-100
Summary of the method: as §1

[11] = system: field corn (Zea mays L., var. Dekalb 535, CORN); assay: Pre-emerge greenhouse test, crop damage rating; details: 14 days after application, rating scale 0-100
Summary of the method: as §1

[12] = system: upland rice (Oryza sp., var.Tebonnet, RICE); assay: Pre-emerge greenhouse test, crop damage rating; details: 14 days after application, rating scale 0-100
Summary of the method: as §1

[13] = system: soybean (Glycine max L., var. Pella 86, SOY); assay: Pre-emerge greenhouse test, crop damage rating; parameters: key to SOY crop damage rating: 0 = no damage, 100 = complete death of all plants; details: 14 days after application, rating scale 0-100
Summary of the method: as §1

[14] = system: common ragweed (Ambrosia artemisiifolia L., AMBEL); assay: Post-emerge greenhouse herbicide test, phytotoxicity rating; details: 14 days after application, scale 0-100
Summary of the method: (§2)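 Compounds in acetone with 0.25% v/v non-ionic surfactant were track-sprayed at 187 l/ha over plants at the 2-3 leaf stage, at 63 to 1000 g ai/ha. Pots were bottom-watered. Injury was scored visually 14 days later on a 0-100 scale, where 0 is no damage and 100 is complete plant death.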

[15] = system: Johnsongrass (Sorghum halepense, SORHA); assay: as above; details: 14 days after application, scale 0-100
Summary of the method: as §2

[16] = system: barnyardgrass (Echinochloa crusgalli, ECHCG); assay: as above; details: 14 days after application, scale 0-100
Summary of the method: as §2

[17] = system: green foxtail (Setaria viridis, SETVI); assay: as above; details: 14 days after application, scale 0-100
Summary of the method: as §2

[18] = system: ivyleaf morningglory (Ipomoea hederacea, IPOHE); assay: as above; details: 14 days after application, scale 0-100
Summary of the method: as §2

[19] = system: lambsquarters (Chenopodium album, CHEAL); assay: as above; details: 14 days after application, scale 0-100
Summary of the method: as §2

[20] = system: large crabgrass (Digitaria sanguinalis, DIGSA); assay: as above; details: 14 days after application, scale 0-100
Summary of the method: as §2

[21] = system: redroot pigweed (Amaranthus retroflexus, AMARE); assay: as above; details: 14 days after application, scale 0-100
Summary of the method: as §2

[22] = system: sicklepod (Cassia obtusifolia, CASOB); assay: as above; details: 14 days after application, scale 0-100
Summary of the method: as §2

[23] = system: velvetleaf (Abutilon theophrasti, ABUTH); assay: as above; details: 14 days after application, scale 0-100
Summary of the method: as §2

[24] = system: field corn (Zea mays L., var. Dekalb 535, CORN); assay: Post-emerge greenhouse test, crop damage rating; details: 14 days after application, scale 0-100
Summary of the method: as §2

[25] = system: upland rice (Oryza sp., var.Tebonnet, RICE); assay: Post-emerge greenhouse test, crop damage rating; details: 14 days after application, scale 0-100
Summary of the method: as §2

[26] = system: soybean (Glycine max L., var. Pella 86, SOY); assay: Post-emerge greenhouse test, crop damage rating; parameters: key to crop damage rating SOY: 0-100 scale: 0 = no damage, 100 = complete death of all plants; details: 14 days after application, scale 0-100
Summary of the method: as §2

SMILES: O=c1n(-c2cc(Oc3ncccc3[N+](=O)[O-])c(Cl)cc2F)c(=S)n2n1CCCC2 [Compound 8-19]
- SORHA phytotoxicity rating ([1]; Rate 125 g al/ha): 80
- SORHA phytotoxicity rating ([1]; Rate 500 g al/ha): 95
- ECHCG phytotoxicity rating ([2]; Rate 125 g al/ha): 50
- ECHCG phytotoxicity rating ([2]; Rate 500 g al/ha): 95
- AMBEL phytotoxicity rating ([3]; Rate 125 g al/ha): 50
- AMBEL phytotoxicity rating ([3]; Rate 500 g al/ha): 100
- SETVI phytotoxicity rating ([4]; Rate 125 g al/ha): 100
- SETVI phytotoxicity rating ([4]; Rate 500 g al/ha): 100
- IPOHE phytotoxicity rating ([5]; Rate 125 g al/ha): 40
- IPOHE phytotoxicity rating ([5]; Rate 500 g al/ha): 90
- CHEAL phytotoxicity rating ([6]; Rate 125 g al/ha): 100
- CHEAL phytotoxicity rating ([6]; Rate 500 g al/ha): 100
- DIGSA phytotoxicity rating ([7]; Rate 125 g al/ha): 30
- DIGSA phytotoxicity rating ([7]; Rate 500 g al/ha): 100
- AMARE phytotoxicity rating ([8]; Rate 125 g al/ha): 100
- AMARE phytotoxicity rating ([8]; Rate 500 g al/ha): 100
- CASOB phytotoxicity rating ([9]; Rate 125 g al/ha): 20
- CASOB phytotoxicity rating ([9]; Rate 500 g al/ha): 100
- ABUTH phytotoxicity rating ([10]; Rate 125 g al/ha): 100
- ABUTH phytotoxicity rating ([10]; Rate 500 g al/ha): 100
- CORN crop damage rating ([11]; Rate 125 g al/ha): 15
- CORN crop damage rating ([11]; Rate 500 g al/ha): 30
- RICE crop damage rating ([12]; Rate 125 g al/ha): 50
- RICE crop damage rating ([12]; Rate 500 g al/ha): 80
- SOY crop damage rating ([13]; Rate 125 g al/ha): 20
- SOY crop damage rating ([13]; Rate 500 g al/ha): 0
- phytotoxicity rating AMBEL ([14]; rate 63 g ai/ha): 90
- phytotoxicity rating AMBEL ([14]; rate 500 g ai/ha): 90
- phytotoxicity rating SORHA ([15]; rate 63 g ai/ha): 50
- phytotoxicity rating SORHA ([15]; rate 500 g ai/ha): 50
- phytotoxicity rating ECHCG ([16]; rate 63 g ai/ha): 50
- phytotoxicity rating ECHCG ([16]; rate 500 g ai/ha): 50
- phytotoxicity rating SETVI ([17]; rate 63 g ai/ha): 60
- phytotoxicity rating SETVI ([17]; rate 500 g ai/ha): 90
- phytotoxicity rating IPOHE ([18]; rate 63 g ai/ha): 100
- phytotoxicity rating IPOHE ([18]; rate 500 g ai/ha): 100
- phytotoxicity rating CHEAL ([19]; rate 63 g ai/ha): 100
- phytotoxicity rating CHEAL ([19]; rate 500 g ai/ha): 100
- phytotoxicity rating DIGSA ([20]; rate 63 g ai/ha): 30
- phytotoxicity rating DIGSA ([20]; rate 500 g ai/ha): 30
- phytotoxicity rating AMARE ([21]; rate 63 g ai/ha): 100
- phytotoxicity rating AMARE ([21]; rate 500 g ai/ha): 100
- phytotoxicity rating CASOB ([22]; rate 63 g ai/ha): 70
- phytotoxicity rating CASOB ([22]; rate 500 g ai/ha): 90
- phytotoxicity rating ABUTH ([23]; rate 63 g ai/ha): 100
- phytotoxicity rating ABUTH ([23]; rate 500 g ai/ha): 100
- crop damage rating CORN ([24]; rate 63 g ai/ha): 30
- crop damage rating CORN ([24]; rate 500 g ai/ha): 30
- crop damage rating RICE ([25]; rate 63 g ai/ha): 40
- crop damage rating RICE ([25]; rate 500 g ai/ha): 60
- crop damage rating SOY ([26]; rate 63 g ai/ha): 65
- crop damage rating SOY ([26]; rate 500 g ai/ha): 50

SMILES: N#Cc1cccnc1Oc1cc(-n2c(=O)n3n(c2=S)CCCC3)c(F)cc1Cl [Compound 8-20]
- SORHA phytotoxicity rating ([1]; Rate 125 g al/ha): 40
- SORHA phytotoxicity rating ([1]; Rate 500 g al/ha): 90
- ECHCG phytotoxicity rating ([2]; Rate 125 g al/ha): 60
- ECHCG phytotoxicity rating ([2]; Rate 500 g al/ha): 80
- AMBEL phytotoxicity rating ([3]; Rate 125 g al/ha): 90
- AMBEL phytotoxicity rating ([3]; Rate 500 g al/ha): 100
- SETVI phytotoxicity rating ([4]; Rate 125 g al/ha): 95
- SETVI phytotoxicity rating ([4]; Rate 500 g al/ha): 100
- IPOHE phytotoxicity rating ([5]; Rate 125 g al/ha): 95
- IPOHE phytotoxicity rating ([5]; Rate 500 g al/ha): 100
- CHEAL phytotoxicity rating ([6]; Rate 125 g al/ha): 100
- CHEAL phytotoxicity rating ([6]; Rate 500 g al/ha): 100
- DIGSA phytotoxicity rating ([7]; Rate 125 g al/ha): 40
- DIGSA phytotoxicity rating ([7]; Rate 500 g al/ha): 100
- AMARE phytotoxicity rating ([8]; Rate 125 g al/ha): 100
- AMARE phytotoxicity rating ([8]; Rate 500 g al/ha): 100
- CASOB phytotoxicity rating ([9]; Rate 125 g al/ha): 90
- CASOB phytotoxicity rating ([9]; Rate 500 g al/ha): 100
- ABUTH phytotoxicity rating ([10]; Rate 125 g al/ha): 100
- ABUTH phytotoxicity rating ([10]; Rate 500 g al/ha): 100
- CORN crop damage rating ([11]; Rate 125 g al/ha): 5
- CORN crop damage rating ([11]; Rate 500 g al/ha): 10
- RICE crop damage rating ([12]; Rate 125 g al/ha): 20
- RICE crop damage rating ([12]; Rate 500 g al/ha): 40
- SOY crop damage rating ([13]; Rate 125 g al/ha): 20
- SOY crop damage rating ([13]; Rate 500 g al/ha): 25
- phytotoxicity rating AMBEL ([14]; rate 63 g ai/ha): 90
- phytotoxicity rating AMBEL ([14]; rate 500 g ai/ha): 100
- phytotoxicity rating SORHA ([15]; rate 63 g ai/ha): 90
- phytotoxicity rating SORHA ([15]; rate 500 g ai/ha): 100
- phytotoxicity rating ECHCG ([16]; rate 63 g ai/ha): 20
- phytotoxicity rating ECHCG ([16]; rate 500 g ai/ha): 40
- phytotoxicity rating SETVI ([17]; rate 63 g ai/ha): 70
- phytotoxicity rating SETVI ([17]; rate 500 g ai/ha): 0
- phytotoxicity rating IPOHE ([18]; rate 63 g ai/ha): 100
- phytotoxicity rating IPOHE ([18]; rate 500 g ai/ha): 100
- phytotoxicity rating CHEAL ([19]; rate 63 g ai/ha): 95
- phytotoxicity rating CHEAL ([19]; rate 500 g ai/ha): 100
- phytotoxicity rating DIGSA ([20]; rate 63 g ai/ha): 30
- phytotoxicity rating DIGSA ([20]; rate 500 g ai/ha): 30
- phytotoxicity rating AMARE ([21]; rate 63 g ai/ha): 100
- phytotoxicity rating AMARE ([21]; rate 500 g ai/ha): 100
- phytotoxicity rating CASOB ([22]; rate 63 g ai/ha): 90
- phytotoxicity rating CASOB ([22]; rate 500 g ai/ha): 100
- phytotoxicity rating ABUTH ([23]; rate 63 g ai/ha): 100
- phytotoxicity rating ABUTH ([23]; rate 500 g ai/ha): 100
- crop damage rating CORN ([24]; rate 63 g ai/ha): 15
- crop damage rating CORN ([24]; rate 500 g ai/ha): 20
- crop damage rating RICE ([25]; rate 63 g ai/ha): 15
- crop damage rating RICE ([25]; rate 500 g ai/ha): 60
- crop damage rating SOY ([26]; rate 63 g ai/ha): 90
- crop damage rating SOY ([26]; rate 500 g ai/ha): 100
